According to PubChem BioAssay AID298 (DTP/NCI, 2004):
Several values for one entry are separate records, joined by “and”; a condition that tells them apart may be missing. Equal values may be shown once. Results filed as inconclusive are left out.

System: MX-1 breast xenograft, intrarenal, nude mice, tumor weight
Experiment: NCI In Vivo Anticancer Drug Screen. Data for tumor model Human Mammary Carcinoma MX-1 Xenograft (intrarenal inoculation) in NU/NU BALB/C (nude) mice
Settings: endpoint: mean tumor weight change, higher = larger tumour
Procedure, shortened: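 Antitumor activity is expressed as a T/C ratio. The treated group's tumor size or survival is compared against the vehicle-treated control group in mice bearing transplanted tumors.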

[1] = dose: 12.5 mg/kg/injection, schedule: Q04DX003 (ip), vehicle: saline with Tween-80
[2] = dose: 50.0 mg/kg/injection, schedule: Q04DX003 (ip), vehicle: saline with Tween-80
[3] = dose: 37.5 mg/kg/injection, schedule: Q04DX003 (ip), vehicle: DMSO
[4] = dose: 75.0 mg/kg/injection, schedule: Q04DX003 (ip), vehicle: DMSO
[5] = dose: 150.0 mg/kg/injection, schedule: Q04DX003 (ip), vehicle: DMSO
[6] = dose: 150.0 mg/kg/injection, schedule: Q04DX003 (sc), vehicle: saline

CO[C@@]12[C@@H]3N[C@@H]3CN1C1=C(C(=O)C(NCCc3ccccn3)=C(C)C1=O)[C@@H]2COC(N)=O
T/C (dose: 6.25 mg/kg/injection, schedule: Q04DX003 (ip), vehicle: saline with Tween-80): -51 % of control
T/C [1]: -84 % of control
T/C (dose: 25.0 mg/kg/injection, schedule: Q04DX003 (ip), vehicle: saline with Tween-80): -92 % of control
T/C [2]: -42 % of control

CCN(CC)CCC(=O)OC(C(=O)O[C@H]1C[C@@]2(O)C(OC(=O)c3ccccc3)C3C4(OC(C)=O)COC4C[C@H](O)[C@@]3(C)C(=O)[C@H](OC(C)=O)C(=C1C)C2(C)C)C(NC(=O)c1ccccc1)c1ccccc1 (some centres undefined)
T/C (dose: 4.5 mg/kg/injection, schedule: Q01DX009 (ip), vehicle: water): -100 % of control
T/C (dose: 9.0 mg/kg/injection, schedule: Q01DX009 (ip), vehicle: water): -100 % of control
T/C (dose: 18.0 mg/kg/injection, schedule: Q01DX009 (ip), vehicle: water): -100 % of control

Nc1n[nH]c2ccccc12
T/C (dose: 300.0 mg/kg/injection, schedule: Q04DX003 (ip), vehicle: other): 93 % of control
T/C (dose: 600.0 mg/kg/injection, schedule: Q04DX003 (ip), vehicle: other): 108 % of control

c1ccc2c(c1)-c1ccccc1C1NC21 (centres undefined)
T/C (dose: 37.5 mg/kg/injection, schedule: Q04DX003 (sc), vehicle: saline with Tween-80): 60 % of control
T/C (dose: 75.0 mg/kg/injection, schedule: Q04DX003 (sc), vehicle: saline with Tween-80): 30 % of control

Cc1c(N)nc(C(CC(N)=O)NCC(N)C(N)=O)nc1C(=O)NC(C(=O)NC(C)C(O)C(C)C(=O)NC(C(=O)NCCc1nc(-c2nc(C(=O)NCCCNC(C)c3ccccc3)cs2)cs1)C(C)O)C(OC1OC(CO)C(O)C(O)C1OC1OC(CO)C(O)C(OC(N)=O)C1O)c1cnc[nH]1 (centres undefined)
T/C (dose: 8.0 mg/kg/injection, schedule: Q01DX010 (sc), vehicle: saline): 69 % of control
T/C (dose: 16.0 mg/kg/injection, schedule: Q01DX010 (sc), vehicle: saline): 55 % of control
T/C (dose: 32.0 mg/kg/injection, schedule: Q01DX010 (sc), vehicle: saline): 43 % of control

C=C1C(O)C2(O)OCC34C(CC5C(C)=CC(=O)C(O)C5(C)C23)OC(=O)C(OC(=O)C/C=C(\C)CCCCC)C14 (centres undefined)
T/C (dose: 1.5 mg/kg/injection, schedule: Q04DX003 (ip), vehicle: saline + alcohol): 69 % of control
T/C (dose: 3.0 mg/kg/injection, schedule: Q04DX003 (ip), vehicle: saline + alcohol): 87 % of control
T/C (dose: 6.0 mg/kg/injection, schedule: Q04DX003 (ip), vehicle: saline + alcohol): 47 % of control
T/C (dose: 12.0 mg/kg/injection, schedule: Q04DX003 (ip), vehicle: saline + alcohol): 43 % of control

NC(N)=NOCC[C@@H](N)C(=O)O
T/C (dose: 300.0 mg/kg/injection, schedule: Q04DX003 (sc), vehicle: saline): 87 % of control
T/C (dose: 600.0 mg/kg/injection, schedule: Q04DX003 (sc), vehicle: saline): 111 % of control
T/C (dose: 1200.0 mg/kg/injection, schedule: Q04DX003 (sc), vehicle: saline): 86 % of control
T/C (dose: 2400.0 mg/kg/injection, schedule: Q04DX003 (sc), vehicle: saline): 77 % of control

CCc1ccc(C2=C(O)C(=O)C(c3ccc(CC)cc3)=C(O)C2=O)cc1
T/C (dose: 200.0 mg/kg/injection, schedule: Q04DX003 (sc), vehicle: saline with Tween-80): 67 % of control

COc1ccc2ccccc2c1C1NC(=O)c2ccccc2N1 (centres undefined)
T/C (dose: 300.0 mg/kg/injection, schedule: Q04DX003 (sc), vehicle: Klucel (hydroxypropylcellulose) (HPC)): 79 % of control
T/C (dose: 600.0 mg/kg/injection, schedule: Q04DX003 (sc), vehicle: Klucel (hydroxypropylcellulose) (HPC)): 104 % of control
T/C (dose: 1200.0 mg/kg/injection, schedule: Q04DX003 (sc), vehicle: Klucel (hydroxypropylcellulose) (HPC)): 90 % of control
T/C (dose: 2400.0 mg/kg/injection, schedule: Q04DX003 (sc), vehicle: Klucel (hydroxypropylcellulose) (HPC)): 63 % of control

CN(C)CCC(=O)C(=Cc1ccc(O)cc1)C(=O)CCN(C)C
T/C (dose: 75.0 mg/kg/injection, schedule: Q04DX003 (ip), vehicle: saline): 90 % of control
T/C (dose: 150.0 mg/kg/injection, schedule: Q04DX003 (ip), vehicle: saline): 124 % of control

NC1(C(=O)O)CCCC1
T/C (dose: 25.0 mg/kg/injection, schedule: Q01DX010 (sc), vehicle: saline): 73 % of control
T/C (dose: 50.0 mg/kg/injection, schedule: Q01DX010 (sc), vehicle: saline): 31 % of control

CS(C)=O
T/C (dose: 750.0 mg/kg/injection, schedule: Q01DX010 (sc), vehicle: saline): 122 % of control
T/C (dose: 3000.0 mg/kg/injection, schedule: Q01DX010 (sc), vehicle: saline): 121 % of control

C=Cc1cc(OC)c2c(c1)c(=O)oc1c2cc(OC)c2c(O)ccc(C3OC(C)C(O)C(C)(O)C3O)c21 (centres undefined)
T/C [3]: 95 % of control
T/C [4]: 86 % of control
T/C [5]: 79 % of control
T/C (dose: 300.0 mg/kg/injection, schedule: Q04DX003 (ip), vehicle: DMSO): 64 % of control

[Cl][Hg][Cl]
T/C (dose: 5.0 mg/kg/injection, schedule: Q04DX003 (ip), vehicle: saline): 67 % of control

[N-]=[N+]=CC(=O)CCC(NC(=O)OCc1ccccc1)C(=O)OCc1ccccc1 (centres undefined)
T/C (dose: 300.0 mg/kg/injection, schedule: Q04DX003 (ip), vehicle: Klucel (hydroxypropylcellulose) (HPC)): 6 % of control and 23 % of control and 27 % of control
T/C (dose: 450.0 mg/kg/injection, schedule: Q04DX003 (ip), vehicle: Klucel (hydroxypropylcellulose) (HPC)): 20 % of control
T/C (dose: 600.0 mg/kg/injection, schedule: Q04DX003 (ip), vehicle: Klucel (hydroxypropylcellulose) (HPC)): 6 % of control and 16 % of control
T/C (dose: 900.0 mg/kg/injection, schedule: Q04DX003 (ip), vehicle: Klucel (hydroxypropylcellulose) (HPC)): 1 % of control
T/C (dose: 1200.0 mg/kg/injection, schedule: Q04DX003 (ip), vehicle: Klucel (hydroxypropylcellulose) (HPC)): 22 % of control

c1nnc(NCNc2nncs2)s1
T/C (dose: 50.0 mg/kg/injection, schedule: Q04DX003 (ip), vehicle: suspension in saline): 89 % of control
T/C (dose: 100.0 mg/kg/injection, schedule: Q04DX003 (ip), vehicle: suspension in saline): 59 % of control
T/C (dose: 200.0 mg/kg/injection, schedule: Q04DX003 (ip), vehicle: suspension in saline): 78 % of control
T/C (dose: 400.0 mg/kg/injection, schedule: Q04DX003 (ip), vehicle: suspension in saline): 65 % of control

Oc1cc(O)cc(/C=C/c2ccc(O)c(O)c2)c1
T/C (dose: 25.0 mg/kg/injection, schedule: Q04DX003 (ip), vehicle: DMSO): 90 % of control
T/C [3]: 123 % of control
T/C (dose: 50.0 mg/kg/injection, schedule: Q04DX003 (ip), vehicle: DMSO): 69 % of control
T/C [4]: 71 % of control
T/C (dose: 100.0 mg/kg/injection, schedule: Q04DX003 (ip), vehicle: DMSO): 48 % of control
T/C [5]: 67 % of control

CCOC(=O)[C@]1(Br)CC[C@@]1(Br)C(=O)OCC
T/C (dose: 300.0 mg/kg/injection, schedule: Q04DX003 (sc), vehicle: saline with Tween-80): 99 % of control
T/C (dose: 600.0 mg/kg/injection, schedule: Q04DX003 (sc), vehicle: saline with Tween-80): 96 % of control
T/C (dose: 1200.0 mg/kg/injection, schedule: Q04DX003 (sc), vehicle: saline with Tween-80): 94 % of control

NNC(=O)c1ccncc1
T/C [6]: 123 % of control

CN(Cc1cnc2nc(N)nc(N)c2n1)c1ccc(C(=O)NC(CCC(=O)OC(C)(C)C)C(=O)O)cc1 (centres undefined)
T/C (dose: 25.0 mg/kg/injection, schedule: Q03HX015 (ip), vehicle: sodium bicarbonate): 62 % of control
T/C (dose: 50.0 mg/kg/injection, schedule: Q03HX015 (ip), vehicle: sodium bicarbonate): 110 % of control
T/C (dose: 100.0 mg/kg/injection, schedule: Q03HX015 (ip), vehicle: sodium bicarbonate): 54 % of control
T/C (dose: 200.0 mg/kg/injection, schedule: Q03HX015 (ip), vehicle: sodium bicarbonate): 116 % of control

N#Cc1c(-c2ccc(F)cc2)c(-c2ccc(F)cc2)nn(CCO)c1=O
T/C (dose: 50.0 mg/kg/injection, schedule: Q04DX003 (ip), vehicle: distilled water + Tween-80): 109 % of control
T/C (dose: 400.0 mg/kg/injection, schedule: Q04DX003 (ip), vehicle: distilled water + Tween-80): -28 % of control

CC(C)c1cc(C(=O)O)c(O)c(C(C)C)c1.CC(C)c1cc(C(=O)O)c(O)c(C(C)C)c1.[Cu]
T/C [1]: 74 % of control
T/C [2]: 116 % of control
T/C (dose: 100.0 mg/kg/injection, schedule: Q04DX003 (ip), vehicle: saline with Tween-80): 90 % of control

O=C1CN(c2ccccc2)C(=O)C1C(=O)Nc1ccc(Cl)c(Cl)c1 (centres undefined)
T/C (dose: 120.0 mg/kg/injection, schedule: Q04DX003 (ip), vehicle: saline with Tween-80): 70 % of control
T/C (dose: 240.0 mg/kg/injection, schedule: Q04DX003 (ip), vehicle: saline with Tween-80): 32 % of control

Nc1ncnc2c1ncn2C1OC(CO)C(O)C1O (centres undefined)
T/C [6]: 3 % of control and 23 % of control
